# Ends that are not written are not given here.
# B1: AGM-330 (peptide)
# peptide: RHGAMVYLK
# modifications: not fully specified (C-terminus); also: MAP dendrimer (dimer/tetramer) on lysine core with C-terminal Cys
# notes: The form used in SPR (monomer, dimer or tetramer); also called AGM-330 peptide; AGM peptide ligand
# Experiments:
# [1] = system: MCF-7, MDA-MB-231, HT-29, and HCT-116; experiment: FACS binding of AGM-330-FITC to cancer cells; type: cell-based, human; conditions: 2 h, 37° C., serum-free medium
# [2] = system: MCF-10A and CCD-18Co; experiment: FACS binding of AGM-330-FITC to normal cells; type: cell-based, human; conditions: 2 h of incubation, versus cancer cells
# [3] = molecular target: NCL (Homo sapiens, UniProt P19338); experiment: Double-immunofluorescence confocal microscopy with anti-NCL antibody; type: cell-based; design: GFP-NCL (residues 1-710); expressed in transfected cells; host or cells: HEK293T; conditions: 5 μmol/l, 1 h of incubation
# NCL, sequence (P19338 whole entry, the tested form may be a part): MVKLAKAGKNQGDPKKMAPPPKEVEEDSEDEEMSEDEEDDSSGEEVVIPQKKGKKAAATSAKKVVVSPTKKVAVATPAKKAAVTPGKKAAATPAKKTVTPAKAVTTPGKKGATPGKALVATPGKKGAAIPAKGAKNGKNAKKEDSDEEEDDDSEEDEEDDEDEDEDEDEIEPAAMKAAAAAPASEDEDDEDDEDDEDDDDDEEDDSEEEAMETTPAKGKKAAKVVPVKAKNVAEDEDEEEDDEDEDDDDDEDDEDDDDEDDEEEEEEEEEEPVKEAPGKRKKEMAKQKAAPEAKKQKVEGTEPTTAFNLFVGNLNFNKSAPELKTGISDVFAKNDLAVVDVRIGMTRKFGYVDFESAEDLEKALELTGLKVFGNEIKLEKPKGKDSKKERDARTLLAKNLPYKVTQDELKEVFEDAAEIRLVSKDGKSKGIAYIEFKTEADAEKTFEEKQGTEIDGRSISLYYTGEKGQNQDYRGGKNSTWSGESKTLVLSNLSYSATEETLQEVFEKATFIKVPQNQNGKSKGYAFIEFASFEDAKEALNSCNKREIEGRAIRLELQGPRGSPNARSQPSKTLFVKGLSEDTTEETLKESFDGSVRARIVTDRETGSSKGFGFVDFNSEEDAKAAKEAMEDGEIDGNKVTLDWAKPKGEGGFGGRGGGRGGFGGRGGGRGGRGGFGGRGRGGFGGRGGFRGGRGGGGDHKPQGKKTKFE
# Procedure: FIGS. 11A and 11B show the results of fluorescence confocal microscopy of multiple cancer and normal cells. […] Merge represents AGM-330-FITC, NCL, and nuclear staining by DAPI. AGM-330-FITC represents FITC-conjugated AGM-330. Scale bar is 20 μm. […] Here, plasma membrane, cytosol and nuclear NCL were immunoblotted using anti-NCL antibody. […] Here, MDA-MB-231 cells were transfected for 48 hours. Then, 5 μmol/l of AGM-330-FITC was added for 2 hours. Cells were washed twice with PBS and fixed with 4% paraformaldehyde. Fluorescence was observed using a fluorescent confocal microscope. AGM-330-FITC is FITC-conjugated AGM-330, and the scale bar is 20 μm. […] FIGS. 11G and 11H show in vivo fluorescence images of mice 30 min, 1 h, 6 h, and 24 h after intravenous injections of 10 nmol free Alexa680 (FIG. 11G) or 10 nmol AGM-330-Alexa680 (FIG. 11H) in MDA-MB-231-luc tumor-bearing mice. Here, fluorescence images of the major organs including the heart, spleen, lung, brain, liver, kidney, and tumors were removed from mice with different treatments. […] FIGS. 11I and 11J are graphs showing the average radiant efficiency of Alexa680-associated fluorescence from live imaging of three animals in tumors (FIG. 11I) and different organs (FIG. 11J).
# The present inventors evaluated the specificity of AGM-330 to NCL with cell binding assays against different cell lines using fluorescence microscopy. […]
# [4] = system: MCF-10A; experiment: Whole-cell binding (cell-growth-on-bead) assay of screened peptide beads; type: cell-based, human
# Procedure: (§1) Here, multiple breast and colorectal cancer cells and normal breast and colorectal cells were re-suspended at 10^6 cells/ml and incubated with beads. All experiments were repeated 3 times, and the scale bar is 200 μm. […] Here, nuclei were stained with DAPI (blue), and scale bar is 50 μm. […] Here, a whole-cell binding assay was performed to determine the cell binding of AGM-330, and the scale bar is 200 μm. […] Fmoc=9-fluorenylmethoxycarbonyl, DMF=dimethylformamide. […] Here, bar graphs represent the mean±SD, and statistical analyses were performed by one-way ANOVA with Dunnett's multiple comparison. *, **, and *** indicate P<0.05, P<0.01, and P<0.001, respectively.
# (§2) The beads were washed extensively with double-distilled water and phosphate-buffered saline (PBS; Welgene Inc., Korea) before screening. Cancer cells and normal cells were detached from culture dishes with trypsin/EDTA (Gibco), washed with their corresponding culture medium, resuspended at 10^6 cells/ml, and incubated with OBOC beads in Petri dishes in a humidified CO2 incubator at 37° C. with shaking (60 rpm). Beads bound by cells appeared under a microscope as rosettes with a central bead covered by one or more layers of cells. The positive beads were picked by pipette under an inverted microscope, treated with guanidine-HCL (8 M, 20 min) to remove cells and proteins on the bead surface, and subjected to a second round of screening with normal breast epithelial cells to eliminate false positive binding. Only beads with cell binding at both rounds were sent for peptide sequencing.
# (§3) To identify a novel cancer-specific peptide ligand, the present inventors synthesized about 2, 600,000 libraries using 5 g of Tentagel MB NH2 resin (200 μm, 520,000 beads/g; FIG. 3).
# [5] = system: MDA-MB-231; experiment: as above; type: cell-based, human
# Procedure: as §1, §2, §3
# [6] = system: MDA-MB-231 cells; experiment: Confocal imaging of FITC-labeled peptides; type: cell-based, human; conditions: compared with AGM-331 and AGM-332
# [7] = system: human breast cancer cell lines (MCF7 and MDA-MB-231) and human colorectal cancer cell lines (HT-29 and HCT-116); experiment: Cell-growth-on-bead assay with resynthesized AGM-330 beads; type: cell-based; conditions: MCF7, MDA-MB-231, HT-29, HCT-116
# Procedure: as §1
# The beads were washed extensively with double-distilled water and phosphate-buffered saline (PBS; Welgene Inc., Korea) before screening. Cancer cells and normal cells were detached from culture dishes with trypsin/EDTA (Gibco), washed with their corresponding culture medium, resuspended at 10^6 cells/ml, and incubated with OBOC beads in Petri dishes in a humidified CO2 incubator at 37° C. with shaking (60 rpm). Beads bound by cells appeared under a microscope as rosettes with a central bead covered by one or more layers of cells. […]
# [8] = system: MCF-10A and CCD-18Co; experiment: Cell-growth-on-bead assay, normal cell lines; type: cell-based, human
# Procedure: as §1, §2, §3
# [9] = system: MDA-MB-231 cells; experiment: AGM-330 binding to cells after NCL knockdown (fluorescence confocal microscopy); type: cell-based, human
# Procedure: (§4) FIGS. 11A and 11B show the results of fluorescence confocal microscopy of multiple cancer and normal cells. Here, MCF-10A, MCF-7, MDA-MB-231 (FIG. 11A) or CCD-18Co, HT-29, and HCT-116 (FIG. 11B) cells were incubated with 5 μmol/l AGM-330-FITC for 30 min at 37° C. […] Cells were then fixed with 4% paraformaldehyde, and the nuclei were stained with DAPI. Merge represents AGM-330-FITC, NCL, and nuclear staining by DAPI. AGM-330-FITC represents FITC-conjugated AGM-330. Scale bar is 20 μm. […] Here, plasma membrane, cytosol and nuclear NCL were immunoblotted using anti-NCL antibody. […] Here, MDA-MB-231 cells were transfected for 48 hours. Then, 5 μmol/l of AGM-330-FITC was added for 2 hours. […] Fluorescence was observed using a fluorescent confocal microscope. […] FIGS. 11G and 11H show in vivo fluorescence images of mice 30 min, 1 h, 6 h, and 24 h after intravenous injections of 10 nmol free Alexa680 (FIG. 11G) or 10 nmol AGM-330-Alexa680 (FIG. 11H) in MDA-MB-231-luc tumor-bearing mice. Here, fluorescence images of the major organs including the heart, spleen, lung, brain, liver, kidney, and tumors were removed from mice with different treatments. […] FIGS. 11I and 11J are graphs showing the average radiant efficiency of Alexa680-associated fluorescence from live imaging of three animals in tumors (FIG. 11I) and different organs (FIG. 11J). […]
# [10] = system: MDA-MB-231-luc tumor; experiment: In vivo near-infrared fluorescence imaging in xenograft model of human breast cancer; design: species or system mice; conditions: mouse
# Procedure: as §4
# [11] = system: MDA-MB-231-luc cells; experiment: Tumor suppression in breast cancer xenograft model; type: in vivo, NPG mice; conditions: 16.68 mg/kg
# Procedure: FIG. 14B is a schematic representation of the experimental protocol. Here, anesthetized 6-week-old […] NPG mice were inoculated with a 1:1 mix of Matrigel and 1×10^6 MDA-MB-231-luc cells into the mammary fat pad. […] Nuclei were stained with DAPI (blue), and the scale bar is 50 μm. Bar graphs represent the mean±SD, and statistical analyses were performed by one-way ANOVA with Dunnett's multiple comparison. *, **, and *** indicate P<0.05, P<0.01, and P<0.001, respectively. […]
# All animal experiments were performed in accordance with IACUC guidelines (GIST-2019-040). For tumorigenesis experiments, anesthetized 6-week-old female NOD-scid Il2rg^−/− mice (NPG™, VITALSTAR) were inoculated in the mammary fat pad with 1×10^6 MDA-MB-231-luc cells in a volume of 100 μl (n=5˜6 for each group). After tumor cell inoculation, when the tumor volume reached approximately 100 mm^3, the mice were randomly divided into the following five groups: (i) control, (ii) low-dose paclitaxel (2 mg/kg), (iii) high-dose paclitaxel (10 mg/kg), (iv) AGM-330 (16.68 mg/kg or 8.34 mg/kg), and (v) AGM-330-PTX (19.05 mg/kg or 10.71 mg/kg). The tumor size was measured twice a week, and the tumor volume was calculated with the following formula:
# For the bioluminescent imaging experiment, D-luciferin (150 mg/kg; PerkinElmer) was intraperitoneally injected into each mouse, and an IVIS 100 imaging system (Xenogen, Corporation, Alameda, CA) was used for bioluminescent monitoring. Mice were anesthetized with vaporized isoflurane (BK Pharm, Ilsan, Korea) and placed in an imaging chamber. After 10 min, each animal was imaged with an exposure time of 1 min. All bioluminescent image data were provided by Living Image software (version 4.5.2, PerkinElmer). Photons detected from tumors were converted to average radiance values (photon/see/cm^2/sr), which are quantitative data obtained from a region of intensity (ROI) and include the photons emitted by bioluminescent cells from an assigned rectangular area over the whole body of each mouse.
# Following in vitro proliferation analysis on cancer lines, the present inventors investigated whether AGM-330t-PTX could be a potential therapeutic agent in vivo. The present inventors inoculated MDA-MB-231-luc cells into the mammary fat pad of NPG mice. After the subcutaneous tumors grew to 100 mm^3, comparative efficacy studies were performed by dividing the animals into five groups (n=5/group) treated with vehicle (PBS), AGM-330t (16.68 mg/kg), PTX (2 or 10 mg/kg, respectively) or AGM-330t-PTX (19.05 mg/kg) twice a week by tail vein injection (FIG. 14B). Tumor growth was monitored by measuring volumes twice a week with a caliber rule over the course of 3 weeks.
# The present inventors also performed histological staining of the excised tumors, and an independent pathologist evaluated the slides.
# [12] = molecular target: T1, recombinant nucleolin protein (UniProt P19338 1-710, limits assumed); experiment: SPR (Biacore T-200), recombinant NCL immobilised on a CM5 chip, AGM-330 at 20 nM to 2.5 uM
# T1 construct: also called recombinant NCL; NCL
# T1 sequence (P19338 whole entry): as the sequence (P19338 whole entry, the tested form may be a part) above
# Procedure: (§5) The SPR sensorgrams shown are from an experiment that is representative of a set of three separate experiments using different sensor chips with similar results. Recombinant NCL was immobilized onto a CM5 sensor chip. Various concentrations of AGM-330 (20 nM to 2.5 µM) were incubated with immobilized NCL and analyzed on a Biacore T-200 apparatus.
# (§6) Binding affinity was tested by SPR (surface plasmon resonance) spectroscopy (Biacore T-200). The recombinant nucleolin protein was immobilized on the CM5 sensorchip, and the treated with AGM-330 at various concentrations (20 nM to 2.5 µM). The sensogram for each sample was analyzed to determine the KD value.
# [13] = molecular target: T1, recombinant nucleolin protein; experiment: SPR (Biacore T-200), recombinant NCL immobilised on a CM5 chip, AGM-330 20 nM to 2.5 µM as analyte
# Procedure: as §5, §6
molecule,measurement,setting,value
AGM-330-FITC (RHGAMVYLK; also: FITC-labelled (site not given here)),cancer cell binding (increase in MFI relative to untreated cells),[1],significant cancer cell binding
same,binding to normal cells (MFI),[2],significant decrease in binding
same,colocalization with NCL staining,[3],overlap between NCL and AGM-330-FITC
"RHGAMVYLK [AGM-330, name also used for its PEGylated MAP dendrimeric forms]",binding to the human normal breast cell line MCF-10A,[4],no or only weak binding
same,binding to MDA-MB-231,[5],strong preferential binding
same,fluorescence signals of FITC-labeled peptide on MDA-MB-231 cells,[6],strongest fluorescence signals
same,time until beads were fully covered by cancer cell lines,[7],≤ 15 min
same,binding to normal cell lines MCF-10A and CCD-18Co,[8],bound either very weakly or not at all
same,fluorescence signal (AGM-330 binding) in siNCL1-treated cells,[9],little or no fluorescence signal
same,distribution in tumor tissue versus normal organs (NIRF images),[10],mainly accumulated throughout the tumor tissue rather than normal organs
same,difference in the average tumor volume versus vehicle (PBS)-treated mice,[11],no significant difference
B1,Kd,[12],~0.0577 µM
same,Kd,[13],0.0577 µM
